Source: patent US20260055113A1, “HETEROARYL COMPOUNDS FOR THE TREATMENT OF CANCER” (Hoffmann-La Roche Inc., priority 2022, published 2026)

Tests used:
[1] = Human microsomal stability assay; format: in vitro ADME; details: human liver microsomes 0.5 mg/mL, 1 μM test compound, 37° C., pH 7.4
Procedure: Human liver microsomes (Cat. NO.: 452117, Corning, USA) were preincubated with test compound for 10 minutes at 37° C. in 100 mM potassium phosphate buffer, pH 7.4. The reactions were initiated by adding NADPH regenerating system. The final incubation mixtures contained 1 μM test compound, 0.5 mg/mL liver microsomal protein, 1 mM MgCl2, 1 mM NADP, 1 unit/mL isocitric dehydrogenase and 6 mM isocitric acid in 100 mM potassium phosphate buffer, pH 7.4. After incubation times of 0, 3, 6, 9, 15 and 30 minutes at 37° C., 300 μL of cold ACN (including internal standard) was added to 100 μL incubation mixture to terminate the reaction. Following precipitation and centrifugation, 100 μL supernatant will be taken out and added 300 μL water. The amount of compound remaining in the samples was determined by LC-MS/MS. Controls of no NADPH regenerating system at zero and 30 minutes were also prepared and analyzed. The results were categorized as: low (<7.0 mL/min/kg), medium (7.0-16.2 mL/min/kg) and high (16.2-23.2 mL/min/kg).

CD73 = CD73 (Homo sapiens (Human), UniProt P21589); test: CD73 cellular assay (MDA-MB-231 cells, malachite readout); format: cell-based; details: AMP substrate, 45 min, read-out: Cellular IC50 against CD73
Procedure: After incubating with compounds for 30 minutes, 40 μL of AMP working solution (200 μM AMP in assay buffer) was added into each well in the assay plate. The assay plate was then incubated in a 5% CO2 incubator (Thermo Fisher Scientific) at 37° C. for 45 min. After the reaction was completed, 50 μL of the supernatants was collected and transferred into a new 384 well plate. 10 μL of Malachite A was added to each well in the assay plate and incubated for 10 minutes. 10 μL of Malachite B was then added to each corresponding well of the plate and incubated for 30 minutes.

CD73, sequence (P21589 27-574): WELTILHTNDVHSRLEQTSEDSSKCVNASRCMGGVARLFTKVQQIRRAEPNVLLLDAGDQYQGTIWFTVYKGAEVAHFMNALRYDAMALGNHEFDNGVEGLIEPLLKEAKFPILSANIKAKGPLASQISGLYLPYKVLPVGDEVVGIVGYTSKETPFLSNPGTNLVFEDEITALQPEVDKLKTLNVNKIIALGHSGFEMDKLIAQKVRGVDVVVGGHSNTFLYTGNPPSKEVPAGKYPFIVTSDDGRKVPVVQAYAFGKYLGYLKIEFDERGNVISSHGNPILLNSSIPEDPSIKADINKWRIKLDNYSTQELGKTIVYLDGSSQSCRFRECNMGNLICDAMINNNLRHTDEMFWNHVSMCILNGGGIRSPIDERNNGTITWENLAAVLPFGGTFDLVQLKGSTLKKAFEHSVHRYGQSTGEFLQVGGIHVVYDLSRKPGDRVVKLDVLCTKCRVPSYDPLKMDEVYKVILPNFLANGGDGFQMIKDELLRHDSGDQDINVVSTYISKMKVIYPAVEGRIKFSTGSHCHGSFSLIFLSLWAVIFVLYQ

Structure (SMILES): Cc1nn(C)c2nnc(-c3c[nH]c(=O)[nH]c3=O)cc12 [Example 1, 5-(1,3-dimethylpyrazolo[3,4-c]pyridazin-5-yl)-1H-pyrimidine-2,4-dione]
- CL (h) [1]: 8.14 mL/min/kg
- IC50 (CD73): 56.9 nM

Structure (SMILES): Cn1ncc2nnc(-c3c[nH]c(=O)[nH]c3=O)cc21 [Example 3, 5-(1-methylpyrazolo[4,3-c]pyridazin-6-yl)-1H-pyrimidine-2,4-dione]
- IC50 (CD73): 104 nM

Structure (SMILES): Cn1nnc2nnc(-c3c[nH]c(=O)[nH]c3=O)cc21 [Example 4, 5-(1-methyltriazolo[4,5-c]pyridazin-6-yl)-1H-pyrimidine-2,4-dione]
- CL (h) [1]: 6.15 mL/min/kg
- IC50 (CD73): 159 nM

Structure (SMILES): CC(c1ccccc1)c1nn(C)c2nnc(-c3c[nH]c(=O)[nH]c3=O)cc12 (stereo not shown) [Example 5, 5-[1-methyl-3-(1-phenylethyl)pyrazolo[3,4-c]pyridazin-5-yl]-1H-pyrimidine-2,4-dione]
- CL (h) [1]: 6.15 mL/min/kg

Structure (SMILES): Cn1nc(C2(c3ccccc3)CC2)c2cc(-c3c[nH]c(=O)[nH]c3=O)nnc21 [Example 6, 5-[1-methyl-3-(1-phenylcyclopropyl)pyrazolo[3,4-c]pyridazin-5-yl]-1H-pyrimidine-2,4-dione]
- CL (h) [1]: 6.15 mL/min/kg
- IC50 (CD73): 12.9 nM

Structure (SMILES): Cn1nc(Cl)c2nnc(-c3c[nH]c(=O)[nH]c3=O)cc21 [Example 9, 5-(3-chloro-1-methyl-pyrazolo[4,3-c]pyridazin-6-yl)-1H-pyrimidine-2,4-dione]
- CL (h) [1]: 6.15 mL/min/kg
- IC50 (CD73): 46.7 nM

Structure (SMILES): CC(Oc1nn(C)c2nnc(-c3c[nH]c(=O)[nH]c3=O)cc12)c1ccccc1 (stereo not shown) [Example 10, 5-[1-methyl-3-(1-phenylethoxy)pyrazolo[3,4-c]pyridazin-5-yl]-1H-pyrimidine-2,4-dione]
- CL (h) [1]: 6.15 mL/min/kg

Structure (SMILES): CC(Oc1nn(C)c2nnc(-c3c[nH]c(=O)[nH]c3=O)cc12)c1cccc(C#N)c1 (stereo not shown) [Example 11, 3-[1-[5-(2,4-dioxo-1H-pyrimidin-5-yl)-1-methyl-pyrazolo[3,4-c]pyridazin-3-yl]oxyethyl]benzonitrile]
- CL (h) [1]: 6.15 mL/min/kg
- IC50 (CD73): 2.9 nM

Structure (SMILES): CC(Oc1nn(C)c2nnc(-c3c[nH]c(=O)[nH]c3=O)cc12)c1ccc(C#N)cc1 (stereo not shown) [Example 12, 4-[1-[5-(2,4-dioxo-1H-pyrimidin-5-yl)-1-methyl-pyrazolo[3,4-c]pyridazin-3-yl]oxyethyl]benzonitrile]
- CL (h) [1]: 6.15 mL/min/kg
- IC50 (CD73): 3.4 nM

Structure (SMILES): CC(Oc1nn(C)c2nnc(-c3c[nH]c(=O)[nH]c3=O)cc12)c1ccccc1Cl (stereo not shown) [Example 13, 5-[3-[1-(2-chlorophenyl)ethoxy]-1-methyl-pyrazolo[3,4-c]pyridazin-5-yl]-1H-pyrimidine-2,4-dione]
- CL (h) [1]: 7.84 mL/min/kg
- IC50 (CD73): 5.5 nM

Structure (SMILES): CC(Oc1nn(C)c2nnc(-c3c[nH]c(=O)[nH]c3=O)cc12)c1cccc(Cl)c1 (stereo not shown) [Example 14, 5-[3-[1-(3-chlorophenyl)ethoxy]-1-methyl-pyrazolo[3,4-c]pyridazin-5-yl]-1H-pyrimidine-2,4-dione]
- CL (h) [1]: 7.01 mL/min/kg
- IC50 (CD73): 4 nM

Structure (SMILES): CC(Oc1nn(C)c2nnc(-c3c[nH]c(=O)[nH]c3=O)cc12)c1ccc(Cl)cc1 (stereo not shown) [Example 15, 5-[3-[1-(4-chlorophenyl)ethoxy]-1-methyl-pyrazolo[3,4-c]pyridazin-5-yl]-1H-pyrimidine-2,4-dione]
- CL (h) [1]: 6.15 mL/min/kg
- IC50 (CD73): 4.1 nM

Structure (SMILES): CC(Oc1nn(C)c2nnc(-c3c[nH]c(=O)[nH]c3=O)cc12)c1ccc(F)cc1 (stereo not shown) [Example 16, 5-[3-[1-(4-fluorophenyl)ethoxy]-1-methyl-pyrazolo[3,4-c]pyridazin-5-yl]-1H-pyrimidine-2,4-dione]
- CL (h) [1]: 6.15 mL/min/kg
- IC50 (CD73): 3.5 nM

Structure (SMILES): CC(Oc1nn(C)c2nnc(-c3c[nH]c(=O)[nH]c3=O)cc12)c1ccccn1 (stereo not shown) [Example 17, 5-[1-methyl-3-[1-(2-pyridyl)ethoxy]pyrazolo[3,4-c]pyridazin-5-yl]-1H-pyrimidine-2,4-dione]
- CL (h) [1]: 6.15 mL/min/kg
- IC50 (CD73): 3.7 nM

Structure (SMILES): CC(Oc1nn(C)c2nnc(-c3c[nH]c(=O)[nH]c3=O)cc12)c1cccnc1 (stereo not shown) [Example 18, 5-[1-methyl-3-[1-(3-pyridyl)ethoxy]pyrazolo[3,4-c]pyridazin-5-yl]-1H-pyrimidine-2,4-dione]
- CL (h) [1]: 6.22 mL/min/kg
- IC50 (CD73): 4.3 nM

Structure (SMILES): CC(Oc1nn(C)c2nnc(-c3c[nH]c(=O)[nH]c3=O)cc12)c1ccncc1 (stereo not shown) [Example 19, 5-[1-methyl-3-[1-(4-pyridyl)ethoxy]pyrazolo[3,4-c]pyridazin-5-yl]-1H-pyrimidine-2,4-dione]
- CL (h) [1]: 9.03 mL/min/kg
- IC50 (CD73): 3.9 nM

Structure (SMILES): CC(Oc1nn(C)c2nnc(-c3c[nH]c(=O)[nH]c3=O)cc12)c1nn(C)cc1Cl (stereo not shown) [Example 23, 5-[3-[1-(4-chloro-1-methyl-pyrazol-3-yl)ethoxy]-1-methyl-pyrazolo[3,4-c]pyridazin-5-yl]-1H-pyrimidine-2,4-dione]
- IC50 (CD73): 58.6 nM

Structure (SMILES): Cn1nc(O[C@H](c2ccccc2)C(F)F)c2cc(-c3c[nH]c(=O)[nH]c3=O)nnc21 [Example 28, 5-[3-[(1R)-2,2-difluoro-1-phenyl-ethoxy]-1-methyl-pyrazolo[3,4-c]pyridazin-5-yl]-1H-pyrimidine-2,4-dione]
- CL (h) [1]: 6.15 mL/min/kg

Structure (SMILES): Cn1nc(O[C@@H](c2ccccn2)C(F)(F)F)c2cc(-c3c[nH]c(=O)[nH]c3=O)nnc21 [Example 29B, 5-[1-methyl-3-[(1S)-2,2,2-trifluoro-1-(2-pyridyl)ethoxy]pyrazolo[3,4-c]pyridazin-5-yl]-1H-pyrimidine-2,4-dione]
- CL (h) [1]: 6.15 mL/min/kg

Structure (SMILES): Cn1nc(O[C@@H](c2ccccc2)C(F)(F)F)c2cc(-c3c[nH]c(=O)[nH]c3=O)nnc21 [Example 30B, 5-[1-methyl-3-[(1S)-2,2,2-trifluoro-1-phenyl-ethoxy]pyrazolo[3,4-c]pyridazin-5-yl]-1H-pyrimidine-2,4-dione]
- CL (h) [1]: 8.44 mL/min/kg

Structure (SMILES): Cn1nc(O[C@H](c2ccccn2)C(F)F)c2cc(-c3c[nH]c(=O)[nH]c3=O)nnc21 [Example 31A, 5-[3-[(1R)-2,2-difluoro-1-(2-pyridyl)ethoxy]-1-methyl-pyrazolo[3,4-c]pyridazin-5-yl]-1H-pyrimidine-2,4-dione]
- CL (h) [1]: 6.15 mL/min/kg

Structure (SMILES): Cn1nc(O[C@@H](c2ccccn2)C(F)F)c2cc(-c3c[nH]c(=O)[nH]c3=O)nnc21 [Example 31B, 5-[3-[(1S)-2,2-difluoro-1-(2-pyridyl)ethoxy]-1-methyl-pyrazolo[3,4-c]pyridazin-5-yl]-1H-pyrimidine-2,4-dione]
- CL (h) [1]: 6.15 mL/min/kg

Structure (SMILES): Cn1nc(O[C@H](c2ccc(F)cn2)C(F)F)c2cc(-c3c[nH]c(=O)[nH]c3=O)nnc21 [Example 32A, 5-[3-[(1R)-2,2-difluoro-1-(5-fluoro-2-pyridyl)ethoxy]-1-methyl-pyrazolo[3,4-c]pyridazin-5-yl]-1H-pyrimidine-2,4-dione]
- CL (h) [1]: 6.15 mL/min/kg

Structure (SMILES): Cn1nc(O[C@@H](c2ccc(F)cn2)C(F)F)c2cc(-c3c[nH]c(=O)[nH]c3=O)nnc21 [Example 32B, 5-[3-[(1S)-2,2-difluoro-1-(5-fluoro-2-pyridyl)ethoxy]-1-methyl-pyrazolo[3,4-c]pyridazin-5-yl]-1H-pyrimidine-2,4-dione]
- CL (h) [1]: 6.15 mL/min/kg

Structure (SMILES): Cc1cccc([C@@H](Oc2nn(C)c3nnc(-c4c[nH]c(=O)[nH]c4=O)cc23)C(F)F)n1 [Example 33A, 5-[3-[(1R)-2,2-difluoro-1-(6-methyl-2-pyridyl)ethoxy]-1-methyl-pyrazolo[3,4-c]pyridazin-5-yl]-1H-pyrimidine-2,4-dione]
- CL (h) [1]: 6.15 mL/min/kg

Structure (SMILES): Cc1cccc([C@H](Oc2nn(C)c3nnc(-c4c[nH]c(=O)[nH]c4=O)cc23)C(F)F)n1 [Example 33B, 5-[3-[(1S)-2,2-difluoro-1-(6-methyl-2-pyridyl)ethoxy]-1-methyl-pyrazolo[3,4-c]pyridazin-5-yl]-1H-pyrimidine-2,4-dione]
- CL (h) [1]: 6.15 mL/min/kg

Structure (SMILES): CC(N(C)c1nn(C)c2nnc(-c3c[nH]c(=O)[nH]c3=O)cc12)C(C)(C)C (stereo not shown) [Example 34, 5-[1-methyl-3-[methyl(1,2,2-trimethylpropyl)amino]pyrazolo[3,4-c]pyridazin-5-yl]-1H-pyrimidine-2,4-dione]
- IC50 (CD73): 5.5 nM

Structure (SMILES): CC(C1CCCC1)N(C)c1nn(C)c2nnc(-c3c[nH]c(=O)[nH]c3=O)cc12 (stereo not shown) [Example 35, 5-[3-[1-cyclopentylethyl(methyl)amino]-1-methyl-pyrazolo[3,4-c]pyridazin-5-yl]-1H-pyrimidine-2,4-dione]
- IC50 (CD73): 2.1 nM

Structure (SMILES): Cc1nc([C@H](C)Oc2nn(C)c3nnc(-c4c[nH]c(=O)[nH]c4=O)cc23)ccc1F [Example 40, 5-[3-[(1S)-1-(5-fluoro-6-methyl-2-pyridyl)ethoxy]-1-methyl-pyrazolo[3,4-c]pyridazin-5-yl]-1H-pyrimidine-2,4-dione]
- CL (h) [1]: 6.15 mL/min/kg

Structure (SMILES): Cc1cccc([C@H](C)Oc2nn(C)c3nnc(-c4c[nH]c(=O)[nH]c4=O)cc23)n1 [Example 41, 5-[1-methyl-3-[(1S)-1-(6-methyl-2-pyridyl)ethoxy]pyrazolo[3,4-c]pyridazin-5-yl]-1H-pyrimidine-2,4-dione]
- CL (h) [1]: 8.11 mL/min/kg
